How the values were obtained:
Donor 3 GMA T-Cell Lines = experiment: ATP proliferation assay (CellTiter Glo), Donor 3 GMA T-cell lines, incl. reactivity to non-canonical GA peptides; assay type: cell-based, human; conditions: for Proliferation (luminescent ATP assay), Mean / Mean, ATP proliferation assay: T-cell line 165-H11G
Donor 3 COP T-Cell Lines = experiment: ATP proliferation assay (CellTiter Glo), Donor 3 COP T-cell lines, incl. reactivity to non-canonical GA peptides; assay type: cell-based, human; conditions: for Reactivity (proliferation), Mean: Day 54 of culture

glatiramer acetate [GMA] was tested, and the “Proliferation (luminescent ATP assay), Mean” value (Donor 3 GMA T-Cell Lines; 1.25 μg/mL antigen, autologous B-LCL) was 8 RLU, the “Proliferation (luminescent ATP assay), Mean” value (Donor 3 GMA T-Cell Lines; 2.5 μg/mL antigen, autologous B-LCL) was 33793 RLU and the “Proliferation (luminescent ATP assay), Mean” value (Donor 3 GMA T-Cell Lines; 3 μg/mL antigen, Day 50 of culturing, No Antigen Value 1485) was 46539 RLU. The “Mean, ATP proliferation assay” value (Donor 3 GMA T-Cell Lines; 3 μg/mL, Day 40) was 27515, the “Proliferation (luminescent ATP assay), Mean” value (Donor 3 GMA T-Cell Lines; 5 μg/mL antigen, autologous B-LCL) was 70949 RLU and the “Proliferation (luminescent ATP assay), Mean” value (Donor 3 GMA T-Cell Lines; 10 μg/mL antigen, Day 50 of culturing, No Antigen Value 1485) was 49104 RLU. The “Proliferation (luminescent ATP assay), Mean” value (Donor 3 GMA T-Cell Lines; 10 μg/mL antigen, autologous B-LCL) was 72728 RLU, the “Mean, ATP proliferation assay” value (Donor 3 GMA T-Cell Lines; 10 μg/mL, Day 40) was 44067 and the “Proliferation (luminescent ATP assay), Mean” value (Donor 3 GMA T-Cell Lines; 30 μg/mL antigen, Day 50 of culturing, No Antigen Value 1485) was 32179 RLU. The “responsiveness in proliferation assay” value (Donor 3 GMA T-Cell Lines; all 8 Donor 3 GMA cell lines tested, Day 32, 10 μg/mL (Table 19)) was “responsive”, the “responsiveness in proliferation assay” value (Donor 3 GMA T-Cell Lines; eleven of the 12 cell lines (all but F2G), Day 40, 1, 3 or 10 μg/mL (Table 21)) was “responsive” and the “response in ATP proliferation assay” value (Donor 3 COP T-Cell Lines; 165-D2C, 165-C7C, 165-C4C, Day 39, three concentrations (Table 24)) was “responded comparably”. The “Reactivity (proliferation), Mean” value (Donor 3 COP T-Cell Lines; T-cell line 165-B6C, 1 μg/mL antigen, No Antigen 2358) was 3939 RLU, the “Mean, ATP proliferation assay” value (Donor 3 COP T-Cell Lines; T-cell line 165-B6C, 1 μg/mL, Day 46, after 3 days) was 9925 RLU and the “Reactivity (proliferation), Mean” value (Donor 3 COP T-Cell Lines; T-cell line 165-B6C, 3 μg/mL antigen, No Antigen 2358) was 19344 RLU. The “Mean, ATP proliferation assay” value (Donor 3 COP T-Cell Lines; T-cell line 165-B6C, 3 μg/mL, Day 46, after 3 days) was 38105 RLU, the “Reactivity (proliferation), Mean” value (Donor 3 COP T-Cell Lines; T-cell line 165-B6C, 10 μg/mL antigen, No Antigen 2358) was 29012 RLU and the “Mean, ATP proliferation assay” value (Donor 3 COP T-Cell Lines; T-cell line 165-B6C, 10 μg/mL, Day 46, after 3 days) was 25839 RLU. The “Reactivity (proliferation), Mean” value (Donor 3 COP T-Cell Lines; T-cell line 165-B6C, 100 μg/mL antigen, No Antigen 2358) was 9856 RLU, the “Mean, ATP proliferation assay” value (Donor 3 COP T-Cell Lines; T-cell line 165-B6C, Day 32, 10 μg/mL) was 1058 RLU and the “Reactivity (proliferation), Mean” value (Donor 3 COP T-Cell Lines; T-cell line 165-B10C, 1 μg/mL antigen, No Antigen 2234) was 1942 RLU. For the same substance, the “Mean, ATP proliferation assay” value (Donor 3 COP T-Cell Lines; T-cell line 165-B10C, 1 μg/mL, Day 46, after 3 days) was 5592 RLU, the “Reactivity (proliferation), Mean” value (Donor 3 COP T-Cell Lines; T-cell line 165-B10C, 3 μg/mL antigen, No Antigen 2234) was 2658 RLU and the “Mean, ATP proliferation assay” value (Donor 3 COP T-Cell Lines; T-cell line 165-B10C, 3 μg/mL, Day 46, after 3 days) was 13012 RLU. The “Reactivity (proliferation), Mean” value (Donor 3 COP T-Cell Lines; T-cell line 165-B10C, 10 μg/mL antigen, No Antigen 2234) was 5854 RLU, the “Mean, ATP proliferation assay” value (Donor 3 COP T-Cell Lines; T-cell line 165-B10C, 10 μg/mL, Day 46, after 3 days) was 19866 RLU and the “Reactivity (proliferation), Mean” value (Donor 3 COP T-Cell Lines; T-cell line 165-B10C, 100 μg/mL antigen, No Antigen 2234) was 6380 RLU. The “Proliferation (luminescent ATP assay), Mean” value (Donor 3 COP T-Cell Lines; T-cell line 165-C4C, 1 μg/mL antigen, Day 66 of culture, 0 μg/mL 1881) was 2668, the “Mean, ATP proliferation assay” value (Donor 3 COP T-Cell Lines; T-cell line 165-C4C, 1 μg/mL, Day 39) was 9367 and the “Proliferation (luminescent ATP assay), Mean” value (Donor 3 COP T-Cell Lines; T-cell line 165-C4C, 3 μg/mL antigen, Day 66 of culture, 0 μg/mL 1881) was 16108. The “Mean, ATP proliferation assay” value (Donor 3 COP T-Cell Lines; T-cell line 165-C4C, 3 μg/mL, Day 39) was 26279, the “Proliferation (luminescent ATP assay), Mean” value (Donor 3 COP T-Cell Lines; T-cell line 165-C4C, 10 μg/mL antigen, Day 66 of culture, 0 μg/mL 1881) was 88509 and the “Mean, ATP proliferation assay” value (Donor 3 COP T-Cell Lines; T-cell line 165-C4C, 10 μg/mL, Day 39) was 31014. For the same substance, the “Mean, ATP proliferation assay” value (Donor 3 COP T-Cell Lines; T-cell line 165-C7C, 1 μg/mL, Day 39) was 3307, the “Proliferation (luminescent ATP assay), Mean” value (Donor 3 COP T-Cell Lines; T-cell line 165-C7C, 1.25 μg/mL antigen, autologous B-LCL) was 610 RLU and the “Proliferation (luminescent ATP assay), Mean” value (Donor 3 COP T-Cell Lines; T-cell line 165-C7C, 2.5 μg/mL antigen, autologous B-LCL) was 2699 RLU. The “Mean, ATP proliferation assay” value (Donor 3 COP T-Cell Lines; T-cell line 165-C7C, 3 μg/mL, Day 39) was 12832, the “Proliferation (luminescent ATP assay), Mean” value (Donor 3 COP T-Cell Lines; T-cell line 165-C7C, 5 μg/mL antigen, autologous B-LCL) was 22588 RLU and the “Proliferation (luminescent ATP assay), Mean” value (Donor 3 COP T-Cell Lines; T-cell line 165-C7C, 10 μg/mL antigen, autologous B-LCL) was 24029 RLU. For the same substance, the “Mean, ATP proliferation assay” value (Donor 3 COP T-Cell Lines; T-cell line 165-C7C, 10 μg/mL, Day 39) was 42739, the “Mean, ATP proliferation assay” value (Donor 3 COP T-Cell Lines; T-cell line 165-D2C, 1 μg/mL, Day 39) was 3881 and the “Mean, ATP proliferation assay” value (Donor 3 COP T-Cell Lines; T-cell line 165-D2C, 3 μg/mL, Day 39) was 7503. For the same substance, the “Mean, ATP proliferation assay” value (Donor 3 COP T-Cell Lines; T-cell line 165-D2C, 10 μg/mL, Day 39) was 13253, the “Reactivity (proliferation), Mean” value (Donor 3 COP T-Cell Lines; T-cell line 165-D3C, 1 μg/mL antigen, No Antigen 8319) was 24131 RLU and the “Mean, ATP proliferation assay” value (Donor 3 COP T-Cell Lines; T-cell line 165-D3C, 1 μg/mL, Day 46, after 3 days) was 61535 RLU. The “Reactivity (proliferation), Mean” value (Donor 3 COP T-Cell Lines; T-cell line 165-D3C, 3 μg/mL antigen, No Antigen 8319) was 58814 RLU.
